Molecular target: T1, N-type Ca2+ channels in IMR-32 cells (Homo sapiens, UniProt Q00975)
T1 construct: host or cells: IMR-32 cells, differentiated with dibutyryl cAMP and bromodeoxyuridine
Test: Inhibition of N-type calcium flux in IMR-32 cells (Indo-1 fluorescence, nitrendipine present)
Format: cell-based
Details: for IC50: IMR-32 cells, 5 μM nitrendipine, K+ depolarization
Summary of the method: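 Differentiated IMR-32 cells (7–13 days) were loaded with 5 μM Indo-1 AM, preincubated with compound for 10 min at 30° C, and depolarized with KCl/CaCl2 stimulation solution, with 5 μM nitrendipine blocking L-channels. Peak-minus-basal 400/490 nm emission ratio was plotted against drug concentration, and IC50 came from four-parameter logistic fits.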

T1 sequence (Q00975 whole entry): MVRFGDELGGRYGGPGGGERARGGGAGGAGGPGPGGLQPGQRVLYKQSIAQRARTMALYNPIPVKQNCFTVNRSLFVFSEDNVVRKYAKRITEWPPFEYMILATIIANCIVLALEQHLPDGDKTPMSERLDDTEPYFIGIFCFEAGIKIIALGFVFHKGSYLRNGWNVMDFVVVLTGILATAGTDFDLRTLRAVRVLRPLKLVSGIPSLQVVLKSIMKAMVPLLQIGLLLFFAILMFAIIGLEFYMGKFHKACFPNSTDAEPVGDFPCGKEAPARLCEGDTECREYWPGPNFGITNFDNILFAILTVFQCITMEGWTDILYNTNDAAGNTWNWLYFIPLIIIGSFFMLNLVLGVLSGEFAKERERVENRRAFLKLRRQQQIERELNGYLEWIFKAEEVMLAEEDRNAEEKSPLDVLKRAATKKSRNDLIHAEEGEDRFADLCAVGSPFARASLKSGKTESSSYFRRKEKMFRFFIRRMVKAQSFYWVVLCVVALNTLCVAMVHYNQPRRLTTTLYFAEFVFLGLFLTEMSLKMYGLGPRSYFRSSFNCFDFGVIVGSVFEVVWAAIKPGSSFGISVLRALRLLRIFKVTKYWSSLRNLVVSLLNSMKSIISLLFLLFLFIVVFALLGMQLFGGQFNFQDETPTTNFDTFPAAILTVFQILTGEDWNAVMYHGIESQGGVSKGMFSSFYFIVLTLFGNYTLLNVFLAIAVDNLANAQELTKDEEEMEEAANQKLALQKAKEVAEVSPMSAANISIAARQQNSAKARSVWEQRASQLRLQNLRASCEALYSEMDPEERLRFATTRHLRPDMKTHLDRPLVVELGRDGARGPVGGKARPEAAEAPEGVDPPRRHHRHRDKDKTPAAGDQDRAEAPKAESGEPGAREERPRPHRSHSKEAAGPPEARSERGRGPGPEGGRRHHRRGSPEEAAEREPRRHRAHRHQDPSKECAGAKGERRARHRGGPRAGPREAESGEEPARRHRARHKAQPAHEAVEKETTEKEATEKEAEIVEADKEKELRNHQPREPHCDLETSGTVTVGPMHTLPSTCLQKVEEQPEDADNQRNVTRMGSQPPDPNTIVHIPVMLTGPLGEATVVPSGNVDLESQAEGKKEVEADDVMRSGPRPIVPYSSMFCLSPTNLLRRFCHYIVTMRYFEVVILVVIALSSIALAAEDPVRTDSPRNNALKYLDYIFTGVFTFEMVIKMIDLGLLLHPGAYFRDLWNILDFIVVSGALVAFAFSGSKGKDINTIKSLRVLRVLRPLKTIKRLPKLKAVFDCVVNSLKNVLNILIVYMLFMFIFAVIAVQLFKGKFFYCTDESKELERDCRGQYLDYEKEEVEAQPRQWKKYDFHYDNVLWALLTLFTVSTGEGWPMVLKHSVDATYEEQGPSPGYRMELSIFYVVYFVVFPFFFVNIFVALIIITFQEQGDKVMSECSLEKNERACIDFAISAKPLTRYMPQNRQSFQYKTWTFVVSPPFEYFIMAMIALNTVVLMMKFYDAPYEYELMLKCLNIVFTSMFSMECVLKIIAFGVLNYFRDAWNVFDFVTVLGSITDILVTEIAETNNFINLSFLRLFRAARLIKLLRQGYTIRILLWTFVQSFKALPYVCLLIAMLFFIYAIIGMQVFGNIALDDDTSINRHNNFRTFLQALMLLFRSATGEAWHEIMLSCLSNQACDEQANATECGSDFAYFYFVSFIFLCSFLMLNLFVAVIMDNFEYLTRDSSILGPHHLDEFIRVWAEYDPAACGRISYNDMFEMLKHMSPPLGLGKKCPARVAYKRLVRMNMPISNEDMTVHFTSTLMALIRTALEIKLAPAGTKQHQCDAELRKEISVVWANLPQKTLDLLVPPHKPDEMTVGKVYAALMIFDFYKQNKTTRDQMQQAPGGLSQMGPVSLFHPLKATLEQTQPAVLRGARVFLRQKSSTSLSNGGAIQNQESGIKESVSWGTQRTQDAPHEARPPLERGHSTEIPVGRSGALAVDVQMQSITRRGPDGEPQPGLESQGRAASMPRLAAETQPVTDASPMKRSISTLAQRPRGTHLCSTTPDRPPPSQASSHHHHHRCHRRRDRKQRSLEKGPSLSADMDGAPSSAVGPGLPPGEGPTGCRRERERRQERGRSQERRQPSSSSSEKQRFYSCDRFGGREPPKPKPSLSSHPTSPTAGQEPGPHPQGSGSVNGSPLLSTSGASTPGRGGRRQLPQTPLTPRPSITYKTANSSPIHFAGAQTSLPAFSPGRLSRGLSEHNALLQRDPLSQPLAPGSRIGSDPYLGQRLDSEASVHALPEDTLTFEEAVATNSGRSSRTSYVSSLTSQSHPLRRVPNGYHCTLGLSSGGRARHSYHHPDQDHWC
T1 sequence (P54289 25-956 partner limits assumed): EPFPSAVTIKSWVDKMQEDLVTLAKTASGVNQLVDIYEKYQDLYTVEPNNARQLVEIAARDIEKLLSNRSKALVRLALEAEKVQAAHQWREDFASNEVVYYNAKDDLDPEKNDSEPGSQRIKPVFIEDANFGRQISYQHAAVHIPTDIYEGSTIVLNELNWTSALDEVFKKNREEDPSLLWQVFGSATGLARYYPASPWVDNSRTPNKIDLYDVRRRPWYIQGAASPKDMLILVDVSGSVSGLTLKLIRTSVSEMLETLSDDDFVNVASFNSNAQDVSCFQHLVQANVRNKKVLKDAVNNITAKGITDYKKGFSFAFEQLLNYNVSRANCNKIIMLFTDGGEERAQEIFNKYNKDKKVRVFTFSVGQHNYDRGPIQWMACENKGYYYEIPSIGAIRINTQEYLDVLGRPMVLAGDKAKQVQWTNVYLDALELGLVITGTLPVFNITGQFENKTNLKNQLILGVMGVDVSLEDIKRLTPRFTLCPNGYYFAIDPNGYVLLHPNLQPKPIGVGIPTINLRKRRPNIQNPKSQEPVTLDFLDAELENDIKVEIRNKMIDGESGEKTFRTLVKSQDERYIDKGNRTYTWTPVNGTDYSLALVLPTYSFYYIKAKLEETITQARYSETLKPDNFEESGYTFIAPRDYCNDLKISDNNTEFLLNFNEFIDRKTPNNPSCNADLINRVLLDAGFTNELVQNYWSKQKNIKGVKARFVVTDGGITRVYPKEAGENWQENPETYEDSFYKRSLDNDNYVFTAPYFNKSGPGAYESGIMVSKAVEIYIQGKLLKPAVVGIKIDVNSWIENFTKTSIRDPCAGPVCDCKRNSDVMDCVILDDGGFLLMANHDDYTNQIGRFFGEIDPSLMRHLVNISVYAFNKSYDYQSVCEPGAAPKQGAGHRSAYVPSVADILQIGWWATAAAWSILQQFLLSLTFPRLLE
T1 sequence (P54289 957-1103 partner limits assumed): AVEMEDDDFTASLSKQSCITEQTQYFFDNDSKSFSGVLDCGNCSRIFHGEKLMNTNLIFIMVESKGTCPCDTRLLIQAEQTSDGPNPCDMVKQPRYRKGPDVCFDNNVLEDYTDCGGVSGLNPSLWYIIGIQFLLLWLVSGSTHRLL
T1 sequence (P54284 whole entry partner): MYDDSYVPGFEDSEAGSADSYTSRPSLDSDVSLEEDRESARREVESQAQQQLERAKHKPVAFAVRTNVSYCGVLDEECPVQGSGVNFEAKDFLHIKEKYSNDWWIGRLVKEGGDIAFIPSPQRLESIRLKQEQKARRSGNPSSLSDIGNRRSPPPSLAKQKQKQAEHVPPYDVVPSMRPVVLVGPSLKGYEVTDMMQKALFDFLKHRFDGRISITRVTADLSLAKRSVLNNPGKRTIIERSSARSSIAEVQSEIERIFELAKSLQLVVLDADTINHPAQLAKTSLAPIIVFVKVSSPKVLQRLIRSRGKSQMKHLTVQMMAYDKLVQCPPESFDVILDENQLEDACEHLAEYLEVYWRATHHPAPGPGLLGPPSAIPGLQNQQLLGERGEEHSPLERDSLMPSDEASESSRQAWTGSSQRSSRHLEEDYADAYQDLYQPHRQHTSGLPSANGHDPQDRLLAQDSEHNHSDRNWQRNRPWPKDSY

| SMILES | Inhibition of Calcium Flux in IMR-32 Cells % Inhibition at 10 μM [%] | Inhibition of Calcium Flux in IMR-32 Cells % Inhibition at 1 μM [%] | IC50 [nM] |
| --- | --- | --- | --- |
| Cc1onc(-c2ccccc2)c1C(=O)N[C@@H](CC(C)C)C(=O)N[C@@H](Cc1ccc(OCc2ccccc2)cc1)C(=O)OC(C)(C)C (relative stereo) [Example 131, [(S-(R*,R*)]-3-(4-Benzyloxy-phenyl)-2-{4-methyl-2-[(5-methyl-3-phenyl-isoxazole-4-carbonyl)amino]-pentanoylamino}-propionic acid tert-butyl ester] | 44 | – | – |
| CC(C)C[C@H](NC(=O)N1CCCCCC1)C(=O)N[C@@H](Cc1ccc(OCc2ccccc2)cc1)C(=O)Nc1ccc(N(C)C)cc1 (relative stereo) [Example 215, [S-(R*,R*)]-Azepane-1-carboxylic acid {1-[2-(4-benzyloxy-phenyl)-1-(4-dimethylamino-phenylcarbamoyl)-ethylcarbamoyl]-3-methyl-butyl}-amide] | 44 | 35 | – |
| CC(=O)Nc1ccc(NC(=O)[C@H](Cc2ccc(OCc3ccccc3)cc2)NC(=O)[C@H](CC(C)C)NC(=O)N2CCCCCC2)cc1 (relative stereo) [Example 216, [S-(R*,R*)]-Azepane-1-carboxylic acid {1-[1-(4-acetylamino-phenylcarbamoyl)-2-(4-benzyloxy-phenyl)-ethylcarbamoyl]-3-methyl-butyl}-amide] | 37 | 16 | – |
| COc1cc(NC(=O)[C@H](Cc2ccc(OCc3ccccc3)cc2)NC(=O)[C@H](CC(C)C)NC(=O)N2CCCCCC2)cc(OC)c1OC (relative stereo) [Example 223, [S-(R*,R*)]-Azepane-1-carboxylic acid {-1-[2-(4-benzyloxy-phenyl)-1-(3,4,5-trimethoxy-phenylcarbamoyl)-ethylcarbamoyl]-3-methyl-butyl}-amide] | 74 | 36 | – |
| CC(C)C[C@H](NC(=O)N1CCCCCC1)C(=O)N[C@@H](Cc1ccc(OCc2ccccc2)cc1)C(=O)NCCc1c[nH]c2ccccc12 (relative stereo) [Example 224, [S-(R*,R*)]-Azepane-1-carboxylic acid (1-{2-(4-benzyloxy-phenyl)-1-[2-(1H-indol-3-yl)-ethylcarbamoyl]-ethylcarbamoyl}-3-methyl-butyl)-amide] | 87 | 50 | – |
| CC(C)C[C@H](NC(=O)N1CCCCCC1)C(=O)N[C@@H](Cc1ccc(OCc2ccccc2)cc1)C(=O)NCCc1ccc(O)cc1 (relative stereo) [Example 225, [S-(R*,R*)]-Azepane-1-carboxylic acid (1-{2-(4-benzyloxy-phenyl)-1-[2-(4-hydroxy-phenyl)-ethylcarbamoyl]-ethylcarbamoyl}-3-methyl-butyl)-amide] | 94 | 55 | – |
| CC(C)C[C@H](NC(=O)N1CCCCCC1)C(=O)N[C@@H](Cc1ccc(OCc2ccccc2)cc1)C(=O)N1CCN(CCOCCO)CC1 (relative stereo) [Example 228, [S-(R*,R*)]-Azepane-1-carboxylic acid-[1-(1-(4-benzyloxy-benzyl)-2-{4-[2-(2-hydroxy-ethoxy)-ethyl]-piperazin-1-yl}-2-oxo-ethylcarbamoyl)-3-methyl-butyl]-amide] | 82 | 24 | – |
| CC(C)C[C@H](NC(=O)N1CCCCCC1)C(=O)N[C@@H](Cc1ccc(OCc2ccccc2)cc1)C(=O)N1CCC(O)CC1 (relative stereo) [Example 235, [S-(R*,R*)]-Azepane-1-carboxylic acid {1-[1-(4-benzyloxy-benzyl)-2-(4-hydroxy-piperidin-1-yl)-2-oxo-ethylcarbamoyl]-3-methyl-butyl}-amide] | 64 | 20 | – |
| CC(C)C[C@H](NC(=O)N1CCCCCC1)C(=O)N[C@@H](Cc1ccc(OCc2ccccc2)cc1)C(=O)NCCC#N (relative stereo) [Example 236, [S-(R*,R*)]-Azepane-1-carboxylic acid {1-[2-(4-benzyloxy-phenyl)-1-(2-cyano-ethylcarbamoyl)-ethylcarbamoyl]-3-methyl-butyl}-amide] | 93 | 50 | – |
| CC(C)C[C@H](NC(=O)N1CCCCCC1)C(=O)N[C@@H](Cc1ccc(OCc2ccccc2)cc1)C(=O)NCc1cccc(I)c1 (relative stereo) [Example 241, [S-(R*,R*)]-Azepane-1-carboxylic acid {1-[2-(4-benzyloxy-phenyl)-1-(3-iodo-benzylcarbamoyl)-ethylcarbamoyl]-3-methyl-butyl}-amide] | 83 | 53 | – |

The next lines start with the values.

| Inhibition of Calcium Flux in IMR-32 Cells % Inhibition at 10 μM [%] | Inhibition of Calcium Flux in IMR-32 Cells % Inhibition at 1 μM [%] | IC50 [nM] | SMILES |
| --- | --- | --- | --- |
| 72 | 54 | – | CC(C)C[C@H](NC(=O)N1CCCCCC1)C(=O)N[C@@H](Cc1ccc(N(Cc2ccccc2)Cc2ccccc2)cc1)C(=O)NC(C)(C)C (relative stereo) [Example 133, [S-(R*,R*)]-Azepane-1-carboxylic acid {1-[2-(4-dibenzylamino-phenyl)-1-tert-butylcarbamoyl-ethylcarbamoyl]-3-methyl-butyl}-amide] |
| 56 | 29 | – | CC(C)C[C@H](NC(=O)N1CCCCCC1)C(=O)N[C@@H](Cc1ccc(C#Cc2ccccc2)cc1)C(=O)NC(C)(C)C (relative stereo) [Example 134, [S(R*,R*)]-Azepane-1-carboxylic acid {1-[1-tert-butylcarbamoyl-2-(4-phenylethynyl-phenyl)-ethylcarbamoyl]-3-methyl-butyl}-amide] |
| – | – | 4300 | CC(C)C[C@H](NC(=O)N1CCOCC1)C(=O)N[C@@H](Cc1ccc(OCc2ccccc2)cc1)C(=O)N1CCCCC1 (relative stereo) [Example 151, [S(R*,R*)]-Morpholine-4-carboxylic acid {1-[1-(4-benzyloxy-benzyl)-2oxo-2-piperidin-1-ylethylcarbamoyl]-3-methyl-butyl}amide] |
| – | – | 280 | CC(C)C[C@H](NC(=O)N1CCCCCC1)C(=O)N[C@@H](Cc1ccc(OCc2ccccc2)cc1)C(=O)Nc1ccc(Br)cc1 (relative stereo) [Example 173, [S-(R*,R*)]-Azepane-1-carboxylic acid {1-[2-(4-benzyloxy-phenyl)-1-(4-bromophenylcarbamoyl)-ethylcarbamoyl]-3-methyl-butyl}-amide] |
| 88 | 40 | – | CC(C)C[C@H](NC(=O)N1CCCCCC1)C(=O)N[C@@H](Cc1ccc(OCc2ccccc2)cc1)C(=O)NCc1ccco1 (relative stereo) [Example 220, [S-(R*,R*)]-Azepane-1-carboxylic acid (1-{2-(4-benzyloxy-phenyl)-1-[(furan-2-ylmethyl)-carbamoyl]-ethylcarbamoyl}-3-methyl-butyl)-amide] |
| 84 | 36 | – | CC(C)C[C@H](NC(=O)N1CCCCCC1)C(=O)N[C@@H](Cc1ccc(OCc2ccccc2)cc1)C(=O)NCc1ccc2c(c1)OCO2 (relative stereo) [Example 222, [S-(R*,R*)]-Azepane-1-carboxylic acid {1-[1-[(benzo[1,3]dioxol-5-ylmethyl)-carbamoyl]-2-(4-benzyloxy-phenyl)-ethylcarbamoyl]-3-methyl-butyl}-amide] |
| 84 | 37 | – | CCC(CO)NC(=O)[C@H](Cc1ccc(OCc2ccccc2)cc1)NC(=O)[C@H](CC(C)C)NC(=O)N1CCCCCC1 (relative stereo) [Example 226, [S-(R*,R*)]-Azepane-1-carboxylic acid {1-[2-(4-benzyloxy-phenyl)-1-(1-hydroxymethyl-propylcarbamoyl)-ethylcarbamoyl]-3-methyl-butyl}-amide] |
| 80 | 30 | – | CCC(CO)(CO)NC(=O)[C@H](Cc1ccc(OCc2ccccc2)cc1)NC(=O)[C@H](CC(C)C)NC(=O)N1CCCCCC1 (relative stereo) [Example 229, [S-(R*,R*)]-Azepane-1-carboxylic acid {1-[2-(4-benzyloxy-phenyl)-1-(1,1-bis-hydroxymethyl-propylcarbamoyl)-ethylcarbamoyl]-3-methyl-butyl}-amide] |
| 86 | 63 | 750 | CC(C)C[C@H](NC(=O)N1CCCCCC1)C(=O)N[C@@H](Cc1ccc(OCc2ccccc2)cc1)C(=O)N1CCN(c2ccc(F)cc2)CC1 (relative stereo) [Example 240, [S-(R*,R*)]-Azepane-1-carboxylic acid (1-{1-(4-benzyloxy-benzyl)-2-[4-(4-fluoro-phenyl)-piperazin-1-yl]-2-oxo-ethylcarbamoyl}-3-methyl-butyl)-amide] |
| 33 | – | – | CC(C)C[C@H](NC(=O)N1CCCCCC1)C(=O)N[C@@H](Cc1ccc(OCc2ccccc2)cc1)C(=O)Nc1ccc(N2CCCCC2)cc1 (relative stereo) [Example 260, [S-(R*,R*)]-Azepane-1-carboxylic acid {1-[2-(4-benzyloxy-phenyl)-1-(4-piperidin-1-yl-phenylcarbamoyl)-ethylcarbamoyl]-3-methyl-butyl}-amide] |
| – | – | 2000 | CC(C)C[C@H](NC(=O)N1CCCCCC1)C(=O)N[C@@H](Cc1ccc(OCc2ccccc2)cc1)C(=O)c1cc[nH]n1 (relative stereo) [Example 261, [S-(R*,R*)]-Azepane-1-carboxylic acid {1-[2-(4-benzyloxy-phenyl)-1-(pyrazole-3-carbonyl)-ethylcarbamoyl]-3-methyl-butyl}-amide] |
